Measured values from patent US20180249707A1, “METHOD OF CONTROLLING ALGAE IN A BODY OF WATER” (priority 2013, published 2018).

Tests used:
Microcystis aeruginosa = test: 14-day flask exposure of Microcystis aeruginosa to BADA; format: cell-based
Description: The experiment was conducted for 14 days and was initiated using 100 mL BG-11 medium contained in 200 mL flasks. […] The experiment was initiated by exposing the algae to 0.2, 0.4, 0.8, 1.0, 1.2, 1.4, 1.8, and 2.0 ppm (mg/L) as BADA, 0.5 Cu/L Cutrine®-Plus. The solution was heated in a water bath and diluted to 70 mg/L using warmed deionized water. Cutrine®-Plus stock solution was made at 50 mg/L using deionized water. Three replicates of each exposure concentration, along with three replicates of an untreated reference were tested. Each sample was maintained at room temperature with 12-hours of light and 12-h dark photoperiod. The chlorophyll a concentrations of Microcystis aeruginosa through the 14 day exposure after exposure to concentrations of BADA and Cutrine®-Plus. The results are shown in TABLES 5, and 6, which show the chlorophyll a concentration and the cell density, respectively.

Cladophora sp. = test: 14-day flask exposure of Cladophora sp. to BADA; format: cell-based, C. kosterae
Description: The experiment was conducted for 14 days and was initiated using 100 mL BG-11 medium contained in 200 mL flasks. […] The solution was heated in a water bath and diluted to 70 mg/L using warmed deionized water. The concentration of DMSO was approximately 350 mg/L in the test beakers. Cutrine®-Plus stock solution was made at 50 mg/L using deionized water. Three replicates of each exposure concentration, along with three replicates of an untreated reference were tested. Each sample was maintained at room temperature with 12-hours of light and 12-h dark photoperiod. […]

[1] = at concentrations comparable to Cutrine-Plus

CCCCCCCCCCCCN(CCCN)CCCN [BADA, N,N-bis-(3-aminopropyl) dodecylamine]
In vivo chlorophyll a concentrations of M. aeruginosa cultures (Microcystis aeruginosa; BADA 0.8 ppm, day 3): 0.26 µg/L | Cell density of M. aeruginosa cultures (Microcystis aeruginosa; BADA 0.8 ppm, day 7): <1E+04 cells/mL | In vivo chlorophyll a concentrations of M. aeruginosa cultures (Microcystis aeruginosa; BADA 0.8 ppm, day 7): 0.03 µg/L | Cell density of M. aeruginosa cultures (Microcystis aeruginosa; BADA 0.8 ppm, day 14): <1E+04 cells/mL | In vivo chlorophyll a concentrations of M. aeruginosa cultures (Microcystis aeruginosa; BADA 0.8 ppm, day 14): 0.02 µg/L | Cell density of M. aeruginosa cultures (Microcystis aeruginosa; BADA 1.0 ppm, day 0 (initial)): 5.7E+05 cells/mL | In vivo chlorophyll a concentrations of M. aeruginosa cultures (Microcystis aeruginosa; BADA 1.0 ppm, day 0 (initial)): 0.90 µg/L | In vivo chlorophyll a concentrations of M. aeruginosa cultures (Microcystis aeruginosa; BADA 1.0 ppm, day 3): 0.31 µg/L | Cell density of M. aeruginosa cultures (Microcystis aeruginosa; BADA 1.0 ppm, day 7): <1E+04 cells/mL | In vivo chlorophyll a concentrations of M. aeruginosa cultures (Microcystis aeruginosa; BADA 1.0 ppm, day 7): 0.05 µg/L | Cell density of M. aeruginosa cultures (Microcystis aeruginosa; BADA 1.0 ppm, day 14): <1E+04 cells/mL | In vivo chlorophyll a concentrations of M. aeruginosa cultures (Microcystis aeruginosa; BADA 1.0 ppm, day 14): 0.02 µg/L | Cell density of M. aeruginosa cultures (Microcystis aeruginosa; BADA 1.2 ppm, day 0 (initial)): 5.7E+05 cells/mL | In vivo chlorophyll a concentrations of M. aeruginosa cultures (Microcystis aeruginosa; BADA 1.2 ppm, day 0 (initial)): 0.90 µg/L | In vivo chlorophyll a concentrations of M. aeruginosa cultures (Microcystis aeruginosa; BADA 1.2 ppm, day 3): 0.29 µg/L | Cell density of M. aeruginosa cultures (Microcystis aeruginosa; BADA 1.2 ppm, day 7): <1E+04 cells/mL | In vivo chlorophyll a concentrations of M. aeruginosa cultures (Microcystis aeruginosa; BADA 1.2 ppm, day 7): 0.04 µg/L | Cell density of M. aeruginosa cultures (Microcystis aeruginosa; BADA 1.2 ppm, day 14): <1E+04 cells/mL | In vivo chlorophyll a concentrations of M. aeruginosa cultures (Microcystis aeruginosa; BADA 1.2 ppm, day 14): 0.02 µg/L | Cell density of M. aeruginosa cultures (Microcystis aeruginosa; BADA 1.4 ppm, day 0 (initial)): 5.7E+05 cells/mL | In vivo chlorophyll a concentrations of M. aeruginosa cultures (Microcystis aeruginosa; BADA 1.4 ppm, day 0 (initial)): 0.90 µg/L | In vivo chlorophyll a concentrations of M. aeruginosa cultures (Microcystis aeruginosa; BADA 1.4 ppm, day 3): 0.29 µg/L | Cell density of M. aeruginosa cultures (Microcystis aeruginosa; BADA 1.4 ppm, day 7): <1E+04 cells/mL | In vivo chlorophyll a concentrations of M. aeruginosa cultures (Microcystis aeruginosa; BADA 1.4 ppm, day 7): 0.04 µg/L | Cell density of M. aeruginosa cultures (Microcystis aeruginosa; BADA 1.4 ppm, day 14): <1E+04 cells/mL | In vivo chlorophyll a concentrations of M. aeruginosa cultures (Microcystis aeruginosa; BADA 1.4 ppm, day 14): 0.01 µg/L | Cell density of M. aeruginosa cultures (Microcystis aeruginosa; BADA 1.8 ppm, day 0 (initial)): 5.7E+05 cells/mL | In vivo chlorophyll a concentrations of M. aeruginosa cultures (Microcystis aeruginosa; BADA 1.8 ppm, day 0 (initial)): 0.90 µg/L | In vivo chlorophyll a concentrations of M. aeruginosa cultures (Microcystis aeruginosa; BADA 1.8 ppm, day 3): 0.32 µg/L | Cell density of M. aeruginosa cultures (Microcystis aeruginosa; BADA 1.8 ppm, day 7): <1E+04 cells/mL | In vivo chlorophyll a concentrations of M. aeruginosa cultures (Microcystis aeruginosa; BADA 1.8 ppm, day 7): 0.03 µg/L | Cell density of M. aeruginosa cultures (Microcystis aeruginosa; BADA 1.8 ppm, day 14): <1E+04 cells/mL | In vivo chlorophyll a concentrations of M. aeruginosa cultures (Microcystis aeruginosa; BADA 1.8 ppm, day 14): 0.02 µg/L | Cell density of M. aeruginosa cultures (Microcystis aeruginosa; BADA 2.0 ppm, day 0 (initial)): 5.7E+05 cells/mL | In vivo chlorophyll a concentrations of M. aeruginosa cultures (Microcystis aeruginosa; BADA 2.0 ppm, day 0 (initial)): 0.90 µg/L | In vivo chlorophyll a concentrations of M. aeruginosa cultures (Microcystis aeruginosa; BADA 2.0 ppm, day 3): 0.40 µg/L | Cell density of M. aeruginosa cultures (Microcystis aeruginosa; BADA 2.0 ppm, day 7): <1E+04 cells/mL | In vivo chlorophyll a concentrations of M. aeruginosa cultures (Microcystis aeruginosa; BADA 2.0 ppm, day 7): 0.03 µg/L | Cell density of M. aeruginosa cultures (Microcystis aeruginosa; BADA 2.0 ppm, day 14): <1E+04 cells/mL | In vivo chlorophyll a concentrations of M. aeruginosa cultures (Microcystis aeruginosa; BADA 2.0 ppm, day 14): 0.01 µg/L | effectiveness as an algaecide on Microcystis aeruginosa (Microcystis aeruginosa; [1]): effective | Extracted chlorphylll a concentrations of C. kosterae cultures (Cladophora sp.; BADA 0.2 ppm, day 0 (initial)): 14.21 μg/sample | Extracted chlorphylll a concentrations of C. kosterae cultures (Cladophora sp.; BADA 0.2 ppm, day 14): 11.01 μg/sample | Extracted chlorphylll a concentrations of C. kosterae cultures (Cladophora sp.; BADA 0.4 ppm, day 0 (initial)): 14.21 μg/sample | Extracted chlorphylll a concentrations of C. kosterae cultures (Cladophora sp.; BADA 0.4 ppm, day 14): 13.15 μg/sample | Extracted chlorphylll a concentrations of C. kosterae cultures (Cladophora sp.; BADA 0.8 ppm, day 0 (initial)): 14.21 μg/sample | Extracted chlorphylll a concentrations of C. kosterae cultures (Cladophora sp.; BADA 0.8 ppm, day 14): 12.54 μg/sample | Extracted chlorphylll a concentrations of C. kosterae cultures (Cladophora sp.; BADA 1.0 ppm, day 0 (initial)): 14.21 μg/sample | Extracted chlorphylll a concentrations of C. kosterae cultures (Cladophora sp.; BADA 1.0 ppm, day 14): 13.26 μg/sample | Extracted chlorphylll a concentrations of C. kosterae cultures (Cladophora sp.; BADA 1.2 ppm, day 0 (initial)): 14.21 μg/sample | Extracted chlorphylll a concentrations of C. kosterae cultures (Cladophora sp.; BADA 1.2 ppm, day 14): 11.15 μg/sample | Extracted chlorphylll a concentrations of C. kosterae cultures (Cladophora sp.; BADA 1.4 ppm, day 0 (initial)): 14.21 μg/sample | Extracted chlorphylll a concentrations of C. kosterae cultures (Cladophora sp.; BADA 1.4 ppm, day 14): 8.63 μg/sample | Extracted chlorphylll a concentrations of C. kosterae cultures (Cladophora sp.; BADA 1.8 ppm, day 0 (initial)): 14.21 μg/sample | Extracted chlorphylll a concentrations of C. kosterae cultures (Cladophora sp.; BADA 1.8 ppm, day 14): 8.70 μg/sample | Extracted chlorphylll a concentrations of C. kosterae cultures (Cladophora sp.; BADA 2.0 ppm, day 0 (initial)): 14.21 μg/sample | Extracted chlorphylll a concentrations of C. kosterae cultures (Cladophora sp.; BADA 2.0 ppm, day 14): 8.32 μg/sample | effectiveness as an algaecide on Cladophora sp. (Cladophora sp.; [1]): effective
